This is an account of results in US20240285670A1, “THERAPEUTIC TREATMENT OF TUMORS BY BLOCKING THE HEME SYNTHESIS-EXPORT AXIS” (Università degli Studi di Torino, priority 2021, published 2024).

Type in all cases: cell-based, human
The test system of one series is SKCO1 cells. In words: Activity of mitochondrial ETC complexes I-IV in SKCO1 cells. As to conditions: FLVCR1a-silenced vs scramble shRNA SKCO1 cells. An excerpt: (§1) (A, C, E) Activities of the mitochondrial electron transport chain complexes I-IV. FLVCR1a-silenced Caco2 (A), SKCO1 (C) or C80 cells (E) are compared to cells expressing a scramble shRNA. Results were expressed as nmol NAD^+/min/mg mitochondrial protein for complex I, nmol reduced cytochrome c/min/mg mitochondrial protein for complexes II-III, nmol oxidized cytochrome c/min/mg mitochondrial protein for complex IV. Data represent mean±SEM, n=3. For statistical analyses, an unpaired Student's t-test was used; *=p<0.05, **=p<0.01. (B, D, F) Mitochondrial ATP levels measured by a bioluminescent assay kit. FLVCR1a-silenced Caco2 (B), SKCO1 (D) or C80 cells (F) are compared to cells expressing a scramble shRNA. Results are expressed as nmol/mg mitochondrial proteins. Data represent mean±SEM, n=3. […] Results were expressed as nmol NAD^+/min/mg mitochondrial protein for complex I, nmol reduced cytochrome c/min/mg mitochondrial protein for complexes II-III, nmol oxidized cytochrome c/min/mg mitochondrial protein for complex IV. […] (H) Mitochondrial ATP levels measured by a bioluminescent assay kit in Caco2 cells overexpressing FLVCR1a (indicated as FLVCR1a+) compared to cells stably transduced with an empty vector. Results are expressed as nmol/mg mitochondrial proteins. […]
The activity of mitochondria respiration complexes was measured according to (Wibom et al., 2002).

A further series concerns C80 cells. As to the kind of experiment: Mitochondrial ATP levels in C80 cells. As to conditions: FLVCR1a-silenced vs scramble shRNA C80 cells.
From the text: as §1, with “proteins.” for “proteins. Data represent mean±SEM, n=3.”
ATP levels in mitochondria extracts were assessed by the ATP Bioluminescent Assay Kit (Sigma-Aldrich, St. Louis, MO USA, catalog n° FLAA). […]

For another series, the system named is Caco2 cells. In words: TCA cycle enzymes activities in Caco2 cells. The note with it: FLVCR1a knockdown vs scramble shRNA Caco2 cells. An excerpt:
TCA cycle flux is reported in the centre of the figure and expressed as pmol CO2/h/mg protein. Data represent mean±SEM, n=3. For statistical analyses, an unpaired Student's t-test was used. **=p<0.01. Moreover, TCA cycle enzymes activities are reported in boxes and expressed as mU/mg mitochondrial proteins. Data represent mean±SEM, n=3. For statistical analyses, an unpaired Student's t-test was used; *=p<0.05, ***=p<0.001. […] Results are expressed as pmol CO2/h/mg protein. Data represent mean±SEM, n=3. For statistical analyses, an unpaired Student's t-test was used; *=p<0.05, **=p<0.01. […]
The enzymatic activities of citrate synthase, α-ketoglutarate dehydrogenase, succinate dehydrogenase and malate dehydrogenase were measured on 10 μg mitochondrial proteins using the Citrate Synthase Assay Kit (Sigma Aldrich, St. Louis, MO USA, catalog n° MAK193), Alpha Ketoglutarate (alpha KG) Assay Kit (Abcam, Cambridge, UK, catalog n° ab83431), Malate Dehydrogenase Assay Kit (Sigma Aldrich, St. Louis, MO USA, catalog n° MAK196), Succinate Dehydrogenase Activity Colorimetric Assay Kit (BioVision, Milpitas, CA USA, catalog n° K660), as per manufacturer's instructions. Results were expressed as mU/mg mitochondrial proteins.

For the substance “FLVCR1a shRNA: shRNA specifically down-regulating FLVCR1a without targeting FLVCR1b; pLKO.1 lentiviral clone TRCN0000059599, antisense SEQ ID No.: 2 (antisense TTGCTAATGATGCTGTACTGG; sense CCAGTACAGCATCATTAGCAA)”, the ETC complexes activity result in the series on SKCO1 cells was “increased ETC complexes activity”. Further, the “mitochondrial ATP levels” value with C80 cells is “increased”. The “TCA cycle enzymes activity (citrate synthase, α-ketoglutarate dehydrogenase, succinate dehydrogenase, malate dehydrogenase)” value in the series on Caco2 cells is “enhanced activity”.
